The text below walks through data of patent US5856529A, “Benzofuran and dihydrobenzofuran melatonergic agents” (Bristol-Myers Squibb Company, priority 1997, dated 1999).

The target in the assay is T1, ML1a human melatonin receptor (Homo sapiens, UniProt P48039).
T1 construct: expressed in transfected cells
T1 sequence (P48039 whole entry): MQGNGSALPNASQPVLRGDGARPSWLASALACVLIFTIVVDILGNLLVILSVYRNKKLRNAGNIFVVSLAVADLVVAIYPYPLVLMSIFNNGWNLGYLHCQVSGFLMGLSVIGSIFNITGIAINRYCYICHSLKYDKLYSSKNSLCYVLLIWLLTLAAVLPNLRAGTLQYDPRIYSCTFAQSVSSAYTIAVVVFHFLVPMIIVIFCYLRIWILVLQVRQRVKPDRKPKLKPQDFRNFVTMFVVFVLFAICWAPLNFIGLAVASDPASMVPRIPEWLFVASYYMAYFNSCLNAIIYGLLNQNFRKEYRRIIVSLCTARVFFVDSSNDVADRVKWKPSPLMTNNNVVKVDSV
In words: Melatonergic Receptor Binding Activity (2-[125I]-iodomelatonin, membranes of NIH-3T3 cells expressing ML1a receptor). The settings on record: 37° C. for 1 hour, read-out: Melatonin Binding Affinity (IC50). The procedure:
Melatonergic Receptor Binding Activity
(a) TME=50 mM Tris buffer containing 12.5 mM MgCl2, and 2 mM EDTA, pH 7.4 at 37° C. with concentrated HCl.
(b) Wash buffer: 20 mM Tris base containing 2 mM MgCl2, pH 7.4 at room temperature.
(c) 10^-4 M melatonin (10^-5 M final concentration).
(d) 2-[^125 I]-iodomelatonin, […] final concentration
The melatonin ML1a receptor cDNA was subcloned into pcDNA3 and introduced into NIH-3T3 cells using Lipofectamine. Transformed NIH-3T3 cells resistant to geneticin (G-418) were isolated, and single colonies expressing high levels of 2[^125 I]-iodomelatonin binding were isolated. Cells are maintained in DMEM supplemented with 10% calf serum and G-418 (0.5 g/liter). Cells are grown to confluency in T-175 flasks, scraped using Hank's balanced salt solution, and frozen at -80° C. For preparing membrane homogenates, pellets are thawed on ice, and resuspended in TME buffer in the presence of 10 μg/ml aprotinin and leupeptin, and 100 μM phenylmethylsulfonylfluoride. The cells were then homogenized using a dounce homogenizer, and centrifuged. The resulting pellet was resuspended with dounce homogenizer in TME (supplemented with the above protease inhibitors) and frozen. On the day of assay, the small aliquot was thawed on ice and resuspended in ice cold TME (1:50-1:100 v/v) and held on ice until assayed.
3. Incubation: 37° C. for 1 hour. Reaction is terminated by filtration. Filters are washed 3 times.
As to `CC(=O)NC[C@@H]1C[C@H]1c1cccc2c1OCCCO2` (relative stereo) [Example 60], the IC50 was 10 to 100 nM.
In the case of `CCC(=O)NC[C@@H]1C[C@H]1c1cccc2c1CC(C)O2` (single isomer, unassigned; (+)) [Example 82, (+)-(trans)-N-[[2-(2-methyl-2,3-dihydrobenzofuran-4-yl)cycloprop-1-yl]methyl]propanamide] it was less than 10 nM; in that of `CC(=O)NC[C@@H]1C[C@H]1c1cccc2c1OCO2` (relative stereo) [Example 3, (trans)-N-[[2-(1,3-benzodioxol-4-yl)cycloprop-1-yl]methyl]acetamide], less than 10 nM.
For the compound `CCC(=O)NC[C@@H]1C[C@H]1c1cccc2c1CCCO2` (single isomer, unassigned) [Example 96, (+)-(trans)-N-[[2-(3,4-dihydro-2H-1-benzopyran-5-yl)cycloprop-1-yl]methyl]propanamide], the half-maximal inhibitory concentration (IC50) is less than 10 nM.
Regarding `CCC(=O)NC[C@@H]1C[C@H]1c1cccc2c1CC(C)O2` (single isomer, unassigned; (-)) [Example 88, (-)-(trans)-N-[[^2-(2-methyl-2,3-dihydrobenzofuran-4-yl)cycloprop-1-yl]methyl]propanamide], the IC50 is less than 10 nM.
With `CC(C)C(=O)NC[C@@H]1C[C@H]1c1cccc2c1OCO2` (relative stereo) [Example 11, (trans)-N-[[2-(1,3-benzodioxol-4-yl)cycloprop-1-yl]methyl]-2-methylpropanamide], the half-maximal inhibitory concentration (IC50) fell in the range of 10 to 100 nM.
In the case of `CCC(=O)NC[C@@H]1C[C@H]1c1cccc2c1CCCO2` (single isomer, unassigned) [Example 42, (-)-(trans)-N-[[2-(3,4-dihydro-2H-1-benzopyran-5-yl)cycloprop-1-yl]methyl]propanamide] it was 10 to 100 nM; in that of `CCC(=O)NC[C@@H]1C[C@H]1c1cccc2c1CCCCO2` (relative stereo) [Example 61], 100 to 250 nM.
In the case of `CCC(=O)NC[C@@H]1C[C@H]1c1cccc2occc12` (relative stereo) [Example 23, (trans)-N-[[2-(benzofuran-4-yl)cycloprop-1-yl]methyl]propanamide] it was less than 10 nM.
Take `C=CC(=O)NC[C@@H]1C[C@H]1c1cccc2c1OCCO2` (single isomer, unassigned) [Example 52]: the IC50 was less than 10 nM.
In the case of `O=C(NC[C@@H]1C[C@H]1c1cccc2ccoc12)C1CC1` (relative stereo) [Example 80, (trans)-N-[[2-(benzofuran-7-yl)cycloprop-1-yl]methyl]-cyclopropanecarboxamide] it was 10 to 100 nM; in that of `CCC(=O)NC[C@@H]1C[C@H]1c1cccc2c1CCO2` (relative stereo) [Example 29, (trans)-N-[[2-(2,3-dihydrobenzofuran-4-yl)cycloprop-1-yl]methyl] propanamide], less than 10 nM; in that of `O=C(NC[C@@H]1C[C@H]1c1cccc2c1OCCO2)C1CC1` (relative stereo) [Example 18, (trans)-N-[[2-(2,3-dihydro-1,^4-benzodioxin-5-yl)cycloprop-1-yl]-methyl]cyclopropane carboxamide], 10 to 100 nM.
In the case of `O=C(NC[C@@H]1C[C@H]1c1cccc2c1OCCO2)C(F)(F)F` (single isomer, unassigned) [Example 54, (-)-(trans)-N-[[2-(2,3-dihydro-1,4-benzodioxin-5-yl)cycloprop-1-yl]methyl]trifluoroacetamide] it was less than 10 nM; in that of `CCCC(=O)NC[C@@H]1C[C@H]1c1cccc2oc(C)cc12` (relative stereo) [Example 76, (trans)-N-[[2-(2-methyl-benzofuran-4-yl)cycloprop-1-yl]methyl]-butanamide], less than 10 nM; in that of `CCCC(=O)NC[C@@H]1C[C@H]1c1cccc2c1CCO2` (relative stereo) [Example 30, (trans)-N-[[2-(2,3-dihydrobenzofuran-4-yl)cycloprop-1-yl]methyl] butanamide], less than 10 nM.
With `CCC(=O)NCC1C(c2cccc3oc(C)cc23)C1(F)F` (stereo not shown) [Example 95, N-[[2-(2-Methyl-4-benzofuranyl)-3,3-difluorocyclopropanyl]-methyl]propanamide], the IC50 was 10 to 100 nM.
Turning to `CCC(=O)NC[C@@H]1C[C@H]1c1cccc2c1CCO2` (single isomer, unassigned) [Example 2, (-)-(trans)-N-[[2-(2,3-Dihydrobenzofuran-4-yl)cycloprop-1-yl]methyl]propanamide], the concentration for half-maximal inhibition (IC50) is less than 10 nM.
In the case of `O=C(NC[C@@H]1C[C@H]1c1cccc2c1OCC2)C1CC1` (relative stereo) [Example 67] it was 10 to 100 nM.
